These results are taken from PubChem BioAssay (NCI).

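Where inhibition never reached the appropriate level, the endpoint shown equals the highest concentration tested. Otherwise, values were interpolated linearly from a five-concentration, 48-hour dose response in 96-well plates. GI50: concentration for 50% inhibition of growth. TGI is the concentration that stops growth completely.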

Some test systems named below: DMS 114 small cell lung; DMS 273 small cell lung; HOP-18 NSCLC; KM20L2 colon; LXFL 529 NSCLC; RXF-631 renal; SNB-78 CNS; XF 498 CNS; MDA-N.
Common to all, as to assay: NCI anticancer screen, dose series, 48 h

For the compound `COc1ccc(NC(=O)/C(=C/c2ccccc2)C(C)=O)cc1`, the TGI amounted to 30.7 µM in the assay with DMS 114 small cell lung; 30.8 µM in the assay with DMS 273 small cell lung; 28.2 µM in the assay with HOP-18 NSCLC; 29.2 µM in the assay with KM20L2 colon; 24.9 µM with LXFL 529 NSCLC; 31.2 µM in the assay with RXF-631 renal. Besides, the TGI in the assay with SNB-78 CNS was 44.8 µM; in the assay with XF 498 CNS, 30.6 µM.
`Cc1ccccc1NC(=O)c1cc(-c2ccc([N+](=O)[O-])cc2)nc(=S)[nH]1`: the TGI in the assay on DMS 114 small cell lung, with DMS 273 small cell lung, in the assay with HOP-18 NSCLC, in the assay with KM20L2 colon, in the assay with LXFL 529 NSCLC and with RXF-631 renal was over 100 µM each time. In the assay on SNB-78 CNS, this compound came in with a TGI of over 100 µM.
`N/N=C1\C(=O)N(C2CCCCCC2)C(=O)C1C(=O)NC1CCCCCC1` (stereo not drawn): the TGI with HOP-18 NSCLC is 91.4 µM; with KM20L2 colon, 38.1 µM; in the assay on LXFL 529 NSCLC it was 78.3 µM; in the assay with SNB-78 CNS, 77.3 µM.
For `O=C(Cc1nc2ccccc2c(=O)n1-c1ccccc1Cl)c1ccncc1`, the TGI in the assay on DMS 114 small cell lung, in the assay on DMS 273 small cell lung, in the assay on HOP-18 NSCLC, with KM20L2 colon, with LXFL 529 NSCLC and in the assay on RXF-631 renal was over 100 µM each time. This compound came in with a TGI with SNB-78 CNS of over 100 µM.
As for `N#Cc1ccccc1C(Cl)(Cl)c1cnccn1`, the TGI in the assay on DMS 114 small cell lung was 43 µM; in the assay with DMS 273 small cell lung, over 100 µM; with HOP-18 NSCLC, over 100 µM; with LXFL 529 NSCLC, over 100 µM; in the assay with SNB-78 CNS, over 100 µM; in the assay with XF 498 CNS, 33.8 µM.
Consider `NCCSSCCN`, for which the TGI in the assay with DMS 114 small cell lung, in the assay with DMS 273 small cell lung, in the assay with HOP-18 NSCLC, with KM20L2 colon, in the assay with LXFL 529 NSCLC and in the assay on MDA-N was over 100 µM throughout. In addition, the TGI in the assay with RXF-631 renal, in the assay with SNB-78 CNS and with XF 498 CNS was over 100 µM throughout.
`CN(C)CCNc1ccc(CO)c2sc3ccc(O)cc3c(=O)c12`: the TGI in the assay with DMS 114 small cell lung came out at 16.5 µM; with DMS 273 small cell lung, 9.97 µM; with HOP-18 NSCLC it was 29.6 µM; in the assay with KM20L2 colon it was 22.7 µM; in the assay on LXFL 529 NSCLC it was 19 µM; with MDA-N, 3.7 µM. For the same compound, the TGI in the assay with SNB-78 CNS was over 45.6 µM; in the assay on XF 498 CNS, 19.9 µM.
With `CCC[CH2][Sn]([Cl])([Cl])[CH2]CCC`, the GI50 is 1.29 µM in the assay on DMS 273 small cell lung; 1.29 µM with HOP-18 NSCLC; 1.49 µM in the assay with KM20L2 colon; 0.138 µM in the assay on LXFL 529 NSCLC; 0.333 µM with SNB-78 CNS; 0.534 µM in the assay on XF 498 CNS. Further, the TGI with DMS 273 small cell lung amounted to 3.73 µM; in the assay on HOP-18 NSCLC it was 2.56 µM; with KM20L2 colon, 3.01 µM; with LXFL 529 NSCLC, 0.474 µM; in the assay on SNB-78 CNS, 1.43 µM; in the assay with XF 498 CNS it was 1.44 µM.
As for `CC1=C(C(=O)CC(=O)C(=O)Nc2cc(C)ccc2C)Sc2ccccc2N1`, the TGI in the assay with DMS 114 small cell lung, in the assay with HOP-18 NSCLC, with LXFL 529 NSCLC, in the assay with RXF-631 renal, in the assay on SNB-78 CNS and in the assay on XF 498 CNS was over 100 µM in each case.
`CC(C)(C)c1cc(C(O)(C(F)(F)F)C(F)(F)F)c2c(c1)C(C(F)(F)F)(C(F)(F)F)OC(C)(C(C)(C)C)N2` (stereo not drawn): the TGI with DMS 114 small cell lung was 8.64 µM; in the assay on DMS 273 small cell lung, 10.8 µM; with KM20L2 colon it was over 100 µM; with LXFL 529 NSCLC it was 14.1 µM; in the assay on SNB-78 CNS it was 99 µM; in the assay with XF 498 CNS, 4.25 µM.
For `CCc1ccc(NC(=O)NC(=O)c2ccccc2[N+](=O)[O-])cc1Oc1ncc(Cl)cn1`, the TGI in the assay with DMS 114 small cell lung is over 100 µM; in the assay with HOP-18 NSCLC it was over 100 µM; in the assay on KM20L2 colon it was 0.0481 µM; in the assay on LXFL 529 NSCLC, over 100 µM; in the assay with SNB-78 CNS, over 100 µM.
Take `COC/C=C\COC`: the TGI in the assay with DMS 114 small cell lung, in the assay on DMS 273 small cell lung, in the assay on HOP-18 NSCLC, in the assay on KM20L2 colon, with LXFL 529 NSCLC and in the assay on RXF-631 renal was over 100 µM in each case. In addition, the TGI with SNB-78 CNS and in the assay on XF 498 CNS was over 100 µM throughout.
As for `COc1cc(C2SCCCCCCCCCCSC(c3ccc(O)c(OC)c3)SCCCCCCCCCCS2)ccc1O` (stereo not drawn), the TGI in the assay on MDA-N is over 100 µM.
As for `CCOC(=O)C(=O)Nc1ccccc1C`, the TGI in the assay on DMS 114 small cell lung is over 100 µM; with KM20L2 colon it was over 100 µM; with LXFL 529 NSCLC it was over 100 µM; with RXF-631 renal, over 100 µM; with SNB-78 CNS, over 100 µM; with XF 498 CNS, 87.9 µM.
As for `CC(Oc1ccc2c(-c3ccccc3)cc(=O)oc2c1)C(=O)O` (stereo not drawn), the TGI in the assay with DMS 114 small cell lung, with HOP-18 NSCLC, in the assay with KM20L2 colon, in the assay with LXFL 529 NSCLC, in the assay on SNB-78 CNS and in the assay with XF 498 CNS was over 100 µM each time.
With `CCNC(=O)COc1ccc(Br)cc1Br`, the TGI in the assay on DMS 114 small cell lung, in the assay on DMS 273 small cell lung, in the assay on HOP-18 NSCLC, in the assay on KM20L2 colon, in the assay on LXFL 529 NSCLC and in the assay on RXF-631 renal was over 100 µM each time. The compound further came in with a TGI in the assay on SNB-78 CNS of over 100 µM.
As to `CC1=C[C@H]2c3c([nH]c4ccccc34)C(c3c[nH]c4ccccc34)[C@H]2CC1` (stereo partly drawn), the TGI in the assay with DMS 114 small cell lung was determined as 20.5 µM; in the assay with DMS 273 small cell lung, 15.8 µM; in the assay on HOP-18 NSCLC, 24.1 µM; in the assay on LXFL 529 NSCLC, 15.5 µM; in the assay with RXF-631 renal, 14.1 µM; in the assay with SNB-78 CNS, 13.2 µM.
For the compound `C#Cc1cccc(N2C(=O)c3c(c(-c4ccccc4)c(-c4ccc(Cc5ccc(-c6c(-c7ccccc7)c7c(c(-c8ccccc8)c6-c6ccccc6)C(=O)N(c6cccc(C#C)c6)C7=O)cc5)cc4)c(-c4ccccc4)c3-c3ccccc3)C2=O)c1`, the TGI with DMS 114 small cell lung is over 100 µM; with DMS 273 small cell lung it was over 100 µM; in the assay on KM20L2 colon, over 100 µM; in the assay with LXFL 529 NSCLC, over 100 µM; in the assay on SNB-78 CNS, over 100 µM; in the assay with XF 498 CNS it was 72.7 µM.
